One data set concerns the target T1, Human Top1 (HTop1) (Homo sapiens, UniProt P11387).
T1 construct: made in house; host or cells: Sf-9 insect cells infected with recombinant baculovirus (gift from Prof. J. J. Champoux)
T1 sequence (P11387 1-765): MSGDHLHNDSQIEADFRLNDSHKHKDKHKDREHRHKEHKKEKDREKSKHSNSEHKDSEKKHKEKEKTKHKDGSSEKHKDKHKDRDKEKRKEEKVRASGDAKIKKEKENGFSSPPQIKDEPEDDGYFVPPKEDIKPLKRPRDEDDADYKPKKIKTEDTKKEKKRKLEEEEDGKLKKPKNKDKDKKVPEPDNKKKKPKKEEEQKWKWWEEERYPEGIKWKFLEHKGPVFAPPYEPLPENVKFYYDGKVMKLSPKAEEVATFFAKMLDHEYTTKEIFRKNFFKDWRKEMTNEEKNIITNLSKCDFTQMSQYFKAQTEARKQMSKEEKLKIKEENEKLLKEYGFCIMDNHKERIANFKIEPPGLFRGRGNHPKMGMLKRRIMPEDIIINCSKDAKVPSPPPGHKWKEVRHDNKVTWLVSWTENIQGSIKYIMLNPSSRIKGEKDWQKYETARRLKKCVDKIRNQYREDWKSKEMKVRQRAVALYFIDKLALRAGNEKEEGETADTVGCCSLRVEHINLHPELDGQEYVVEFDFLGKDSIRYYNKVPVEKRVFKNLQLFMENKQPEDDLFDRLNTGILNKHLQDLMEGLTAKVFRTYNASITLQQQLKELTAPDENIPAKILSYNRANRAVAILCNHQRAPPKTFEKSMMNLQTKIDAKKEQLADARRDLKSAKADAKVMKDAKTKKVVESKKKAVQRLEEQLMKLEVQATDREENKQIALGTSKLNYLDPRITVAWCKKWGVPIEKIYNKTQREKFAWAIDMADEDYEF
In words: Plasmid DNA relaxation assay, HTop1. Particulars: averages of three experiments, read-out: HTop1 inhibition (EC50). The data set is classed as biochemical. Here is the method:
To investigate the inhibitory effect of our library compounds on the DNA relaxation activity of the recombinant Human and Leishmania topoisomerase 1 (Table 2), assays were performed involving supercoiled plasmid DNA, the enzymes (HTop1 and LdTop1) and our molecules. The enzymes were purified by the standard literature procedure.
The type I DNA topoisomerase are assayed by decreased mobility of the relaxed isomers of supercoiled pBS (SK^+) [pBlue-script (SK^+)] DNA in agarose gel. The relaxation assay was carried out as described previously with LdTop1B and HTop I, diluted in the relaxation buffer (25 mM Tris–HCl, pH 7.5, 5% glycerol, 0.5 mM DTT, 10 mM MgCl2, 50 mM KCl, […] and […] BSA) and supercoiled plasmid pBS (SK^+) DNA (85–95% were negatively supercoiled, with remainder being nicked circles)[9][28][29]. The reconstituted enzyme LdTop1B was assayed at 50 mM KCl concentration as described before. For all kinetic studies, the reaction mixtures containing the buffer and DNA were heated to 37 °C before addition of the enzymes. The reactions were rapidly quenched using stop solution and kept on ice. The gels were stained with ethidium bromide (EtBr) ([…]) and the amount of supercoiled monomer DNA band fluorescence were quantified by integration using Gel Doc 2000 under UV illumination (Bio-Rad Quantity One Software), as described previously.
The wild-type HTop1 (91 kDa) was purified from Sf-9 insect cells infected with the recombinant baculovirus (a kind gift from Prof. J. J. Champoux). Approximately, 1 * 10^9 Sf-9 cells were infected with the recombinant virus, and cells were harvested after 48-h of infection. The cells were lysed and enzyme was purified as described. Briefly, at 48 h post-infection, approximately 3 * 10^9 Sf-9 cells were harvested by centrifugation for 5 min at 400 * g. The cells were resuspended in 1 liter of ice-cold phosphate-buffered saline and centrifuged for 5 min at 400 * g. The nuclei were washed twice in 80 ml of lysis buffer minus Triton X-100 and resuspended in 40 ml of resuspension buffer (50 mM KCl, 10 mM Tris-Cl, pH 7.5, 2 mM MgCl2, 25 mM DTT, 0.4 mg/ml phenylmethylsulfonyl fluoride, 0.12 mg/ml aprotinin). The nuclear extract was stirred for 5 min at ~200 rpm. With continued stirring, 50 ml of polyethylene glycol (PEG) buffer (18% PEG 8000, 1 M NaCl, 10% glycerol) was added dropwise in order to precipitate the DNA. The PEG precipitate was pelleted by centrifugation and the resulting PEG supernatant was dialyzed against 4 liters of potassium phosphate buffer. The dialyzed PEG supernatant passed over a 10-ml bed volume of phosphocellulose (Whatman P11) equilibrated with PPB. The HTop1 flowed through the PS column and then passed over a Mono Q column followed by loaded onto a Mono S column. The Mono S column was eluted with a 25-ml 50–200 mM KPO4, pH 7.4, gradient. […] The peak Mono S fractions were pooled, concentrated with an Amicon ultrafiltration cell, dialyzed into storage buffer (50% glycerol, 10 mM Tris-hydrochloride, pH 7.5, 1 mM DTT, 1 mM EDTA), and stored at −20 °C.

Data set [1] has as its system L. donovani AG83 promastigotes. In words: MTT assay on extracellular promastigotes. Particulars: Leishmania donovani, 12 h, read-out: Anti-promastigote activity IC50. Format: cell-based. Here is the method: Next, compound 4 was screened against extracellular promastigotes.
L. donovani AG83 promastigotes (3.0 × 10^6 cells/ml) are incubated with different concentrations of drugs/compounds under study (1, 2, 5, 10 and 20 μM) for 12 h, following which the survival percentage is estimated by MTT assay. Yellow MTT (3-(4,5-dimethylthiazol- 2-yl)-2,5-diphenyltetrazolium bromide, a tetrazole) is reduced to purple formazan in the mitochondria of living cells. The formazan is then solubilized, and the concentration is determined by optical density at 570 nm. Metabolically active cells convert MTT to formazan, thereby generating a quantitative measure of viability and cytotoxicity. Percentage of viable promastigotes in each treatment groups are determined with respect to untreated control cells.
Background: Formazan colour is commonly taken as a measure of viable cells.

Data set [2] can be described thus: Cytotoxicity on mammalian COS7 cell lines. Format: cell-based. The following applies: African green monkey, COS7 cells.
A further data set deals with COS7 cells. In words: Cytotoxicity on mammalian COS7 cell lines. The data set is classed as cell-based.

The text below walks through data of article PMC4879574, “Identification of Leishmania donovani Topoisomerase 1 inhibitors via intuitive scaffold hopping and bioisosteric modification of known Top 1 inhibitors” (Scientific Reports, 2016).

In general, EC50 refers to the concentration needed to bring the measured effect to its halfway point. Broadly, the IC50 is the concentration at which inhibition is half-maximal. For orientation: CC50 means the concentration that lowers cell viability or growth by half.

Turning to `Cc1cc2c(c(=O)[nH]1)C(=O)O/C2=C\c1ccc(O)c(O)c1` [Compound 4], the EC50 at Human Top1 (HTop1) was above 100 µM. In data set [1], the IC50 stood at 4.21 ± 0.21 µM. Moreover, in data set [2], the midpoint of cytotoxicity, the CC50, lay at 390.6 ± 3.15 µM. The “Selectivity Index (SI)” value with COS7 cells (CC50 against COS7/IC50 against promastigote) is given as around 100. Also, the “Cytotoxicity against COS7” value in the data set with COS7 cells (COS7) is “no cytotoxicity”.
